Data reported in US20120121679A1, “VIRICIDAL AND MICROBICIDAL COMPOSITIONS AND USES THEREOF” (University of Georgia Research Foundation, Inc., priority 2009, published 2012).
Read-outs that look alike come from different tables or passages of the source.

Legend:
S. enteritidis = assay: Reduction of S. enteritidis in water treated with organic acids and SDS; format: cell-based, Salmonella enteritidis
Feline Calicivirus (FCV) = assay: Inactivation of FCV by levulinic acid plus SDS in solution, plaque assay; settings: 21° C., 1 min
Murine norovirus (MNV-1) = assay: Inactivation of MNV-1 by levulinic acid plus SDS in solution, plaque assay; settings: 21° C., 1 min
[1] = test system: spores of Bacillus anthracis Sterne (34F2); format: cell-based
yeast species = assay: Effect of levulinic acids plus SDS at 21° C. on various yeast species
[2] = Candida magnoliae, inoculum […] 10^8 CFU/ml
[3] = Debaryomyces hansenii, inoculum […] 10^7 CFU/ml
[4] = Geotrichum candidum, inoculum […] 10^7 CFU/ml
[5] = Saccharomyces cerevisiae, inoculum […] 10^7 CFU/ml
[6] = Zygosaccharomyces bailii, inoculum […] 10^7 CFU/ml

SMILES: CC(=O)CCC(=O)O [3.0% levulinic acid, levulinic acid]
- Salmonella reduction in water (S. enteritidis; within 30 minutes): 3.4 log CFU/ml
- Salmonella reduction in water (S. enteritidis; within 30 minutes, listed as 3% levulinic acid): about 3.4 log CFU/ml
- Log Reduction PFU/ml (standard deviation), FCV (Feline Calicivirus (FCV); listed as 3% Levulinic acid): 0.43 (±0.23) log PFU/ml
- Log Reduction PFU/ml (standard deviation), MNV-1 (Murine norovirus (MNV-1); listed as 3% Levulinic acid): −0.09 (±0.10) log PFU/ml
- CFU/ml % recovery (as compared to control flask F) ([1]; Experiment A3, 0 min): 108%
- CFU/ml % recovery (as compared to control flask F) ([1]; Experiment A3, 10 min): 81%
- CFU/ml % recovery (as compared to control flask F) ([1]; Experiment A3, 45 min): 55%
- CFU/ml % recovery (as compared to control flask F) ([1]; Experiment A3, 90 min): 64%
- CFU/ml % recovery (as compared to control flask F) ([1]; Experiment A4 absent heat, RT, 0 min): 89%
- CFU/ml % recovery (as compared to control flask F) ([1]; Experiment A4 absent heat, RT, 1 h): 54%
- CFU/ml % recovery (as compared to control flask F) ([1]; Experiment A4 absent heat, RT, 2 h): 27%
- CFU/ml % recovery (as compared to control flask F) ([1]; Experiment A4 absent heat, RT, 3 h): 30%
- CFU/ml % recovery (as compared to control flask F) ([1]; Experiment A4 absent heat, RT, 4 h): 15%
- CFU/ml % recovery (as compared to control flask F) ([1]; Experiment A4 with heat, 65° C., 0 min): 70%
- CFU/ml % recovery (as compared to control flask F) ([1]; Experiment A4 with heat, 65° C., 1 h): 78%
- CFU/ml % recovery (as compared to control flask F) ([1]; Experiment A4 with heat, 65° C., 2 h): 45%
- CFU/ml % recovery (as compared to control flask F) ([1]; Experiment A4 with heat, 65° C., 3 h): 33%
- CFU/ml % recovery (as compared to control flask F) ([1]; Experiment A4 with heat, 65° C., 4 h): 46%
- CFU/ml % recovery (as compared to control flask F) ([1]; Experiment A5 absent heat, RT, 0 min): 105%
- CFU/ml % recovery (as compared to control flask F) ([1]; Experiment A5 absent heat, RT, 1 h): 80%
- CFU/ml % recovery (as compared to control flask F) ([1]; Experiment A5 absent heat, RT, 2 h): 46%
- CFU/ml % recovery (as compared to control flask F) ([1]; Experiment A5 absent heat, RT, 3 h): 67%
- CFU/ml % recovery (as compared to control flask F) ([1]; Experiment A5 absent heat, RT, 4 h): 37%
- CFU/ml % recovery (as compared to control flask F) ([1]; Experiment A5 with heat, 65° C., 0 min): 75%
- CFU/ml % recovery (as compared to control flask F) ([1]; Experiment A5 with heat, 65° C., 1 h): 58%
- CFU/ml % recovery (as compared to control flask F) ([1]; Experiment A5 with heat, 65° C., 2 h): 34%
- CFU/ml % recovery (as compared to control flask F) ([1]; Experiment A5 with heat, 65° C., 3 h): 34%
- CFU/ml % recovery (as compared to control flask F) ([1]; Experiment A5 with heat, 65° C., 4 h): 14%

SMILES: CCCCCCCCCCCCOS(=O)(=O)[O-].[Na+] [0.5% SDS, sodium dodecyl sulfate]
- Log Reduction PFU/ml (standard deviation), FCV (Feline Calicivirus (FCV); sulfate): −0.09 (±0.27) log PFU/ml
- Log Reduction PFU/ml (standard deviation), MNV-1 (Murine norovirus (MNV-1); sulfate): 0.13 (±0.20) log PFU/ml

SMILES: CC(=O)CCC(=O)O [0.5% levulinic acid, levulinic acid]
- Log Reduction PFU/ml (standard deviation), FCV (Feline Calicivirus (FCV)): 0.09 (±0.16) log PFU/ml
- Log Reduction PFU/ml (standard deviation), MNV-1 (Murine norovirus (MNV-1)): 0.09 (±0.38) log PFU/ml

SMILES: CC(=O)CCC(=O)O [2.0% levulinic acids]
- Yeast counts at 2 min (yeast species; [2]): 5.9 log CFU/ml
- Yeast counts at 5 min (yeast species; [2]): 5.9 log CFU/ml
- Yeast counts at 20 min (yeast species; [2]): 6.0 log CFU/ml
- Yeast counts at 30 min (yeast species; [2]): 5.9 log CFU/ml
- Yeast counts at 60 min (yeast species; [2]): 5.8 log CFU/ml

SMILES: CC(=O)O [0.5% acetic acid, acetic acid]
- Salmonella reduction in water (S. enteritidis): 0.7 log CFU/ml

SMILES: CCCCCCCCCCCCOS(=O)(=O)[O-].[Na+] [1.0% SDS]
- Yeast counts at 2 min (yeast species; [2]): 3.3 log CFU/ml
- Yeast counts at 5 min (yeast species; [2]): 3.2 log CFU/ml
- Yeast counts at 20 min (yeast species; [2]): 2.7 log CFU/ml
- Yeast counts at 30 min (yeast species; [2]): 3.0 log CFU/ml
- Yeast counts at 60 min (yeast species; [2]): 3.1 log CFU/ml
- Yeast counts at 2 min (yeast species; [3]): 4.1 log CFU/ml
- Yeast counts at 5 min (yeast species; [3]): 4.5 log CFU/ml
- Yeast counts at 20 min (yeast species; [3]): 4.5 log CFU/ml
- Yeast counts at 30 min (yeast species; [3]): 4.5 log CFU/ml
- Yeast counts at 60 min (yeast species; [3]): 4.4 log CFU/ml
- Yeast counts at 2 min (yeast species; [4]): 3.3 log CFU/ml
- Yeast counts at 5 min (yeast species; [4]): 3.5 log CFU/ml
- Yeast counts at 20 min (yeast species; [4]): 3.5 log CFU/ml
- Yeast counts at 30 min (yeast species; [4]): 3.4 log CFU/ml
- Yeast counts at 60 min (yeast species; [4]): 3.3 log CFU/ml
- Yeast counts at 2 min (yeast species; [5]): 2.6 log CFU/ml
- Yeast counts at 5 min (yeast species; [5]): 2.3 log CFU/ml
- Yeast counts at 20 min (yeast species; [5]): 2.7 log CFU/ml
- Yeast counts at 30 min (yeast species; [5]): 2.3 log CFU/ml
- Yeast counts at 60 min (yeast species; [5]): 2.4 log CFU/ml
- Yeast counts at 2 min (yeast species; [6]): 4.6 log CFU/ml
- Yeast counts at 5 min (yeast species; [6]): 4.6 log CFU/ml
- Yeast counts at 20 min (yeast species; [6]): 4.5 log CFU/ml
- Yeast counts at 30 min (yeast species; [6]): 4.5 log CFU/ml
- Yeast counts at 60 min (yeast species; [6]): 4.4 log CFU/ml
